We go through 23 molecules from ChEMBL document CHEMBL2311490 (Bioorg Med Chem Lett, 2013).

Experiment [1] is described as follows: Displacement of [125I]2-iodomelatonin from melatonin receptor in chicken brain membranes after 60 mins by gamma counting. It counts as cell membranes, Gallus gallus, Membrane. On the technique in general: Displacement assays read how much labelled ligand stays bound in the presence of the test substance.
The species entered for experiment [2] is Xenopus laevis. Description: Antimelanogenic activity in Xenopus laevis tadpoles assessed as melanophore aggregation by microscopy relative to melatonin. It counts as functional.
For experiment [3], the species on record is Xenopus laevis. Description: Antimelanogenic activity in Xenopus laevis tadpoles assessed as melanophore aggregation by microscopy. It counts as functional, organism-based.
Experiment [4] deals with Melatonin receptor type 1A (Homo sapiens, UniProt P48039). Description: Displacement of [125I]2-iodomelatonin from human recombinant MT1 receptor expressed in HEK293 cells after 2 hrs by gamma counting. It counts as cell-based.
Sequence of Melatonin receptor type 1A (P48039 whole entry): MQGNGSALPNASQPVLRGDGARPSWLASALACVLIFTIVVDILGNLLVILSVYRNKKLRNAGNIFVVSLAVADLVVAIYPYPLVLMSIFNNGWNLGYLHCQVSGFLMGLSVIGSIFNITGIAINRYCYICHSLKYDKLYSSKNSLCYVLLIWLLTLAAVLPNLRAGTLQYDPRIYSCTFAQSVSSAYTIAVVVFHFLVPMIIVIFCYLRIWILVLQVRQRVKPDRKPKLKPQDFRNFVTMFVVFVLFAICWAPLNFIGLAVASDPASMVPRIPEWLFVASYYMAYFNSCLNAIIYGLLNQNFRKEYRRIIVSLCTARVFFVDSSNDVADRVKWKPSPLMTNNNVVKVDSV
For experiment [5], the target named is T1, Melatonin receptor type 1B (Homo sapiens, UniProt P49286).
T1 sequence (P49286 whole entry): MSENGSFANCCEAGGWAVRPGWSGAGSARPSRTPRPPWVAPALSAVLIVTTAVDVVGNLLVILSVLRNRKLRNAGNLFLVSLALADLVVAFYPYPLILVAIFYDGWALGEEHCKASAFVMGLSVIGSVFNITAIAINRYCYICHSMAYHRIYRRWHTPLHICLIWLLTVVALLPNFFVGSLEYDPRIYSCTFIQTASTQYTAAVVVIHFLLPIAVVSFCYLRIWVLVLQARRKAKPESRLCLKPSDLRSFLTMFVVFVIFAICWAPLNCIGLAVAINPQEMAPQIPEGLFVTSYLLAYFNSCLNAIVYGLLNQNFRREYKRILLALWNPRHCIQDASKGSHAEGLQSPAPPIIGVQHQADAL
Description: Displacement of [125I]2-iodomelatonin from human recombinant MT2 receptor expressed in HEK293 cells after 2 hrs by gamma counting. It counts as cell-based.

The species named for experiment [6] is Xenopus laevis. The experiment is described as follows: Ratio of melatonin EC50 to compound EC50 for antimelanogenic activity in Xenopus laevis tadpoles assessed as melanophore aggregation by microscopy. It counts as functional.

Turning to `CNC(=O)N/C=C/c1cccc2ccc(OC)cc12`, the Ki (as a rule, the equilibrium dissociation constant of an inhibitor or competing ligand from its target) in experiment [1] is 0.44 nM.

Turning to `COc1cccc(/C=C/NC(C)=O)c1`, affinity in experiment [1] was put at a Ki of 803 nM.

With `COc1ccc2ccccc2c1[C@@H]1C[C@H]1NC(C)=O` (racemic), the “fold change (FC)” value in the experiment filed under Xenopus laevis [2] was 0.025. In addition, the concentration for a half-maximal effect (EC50) – broadly, the concentration at which the effect is half-maximal – in the experiment filed under Xenopus laevis [3] is 101 nM. The values for the Ki in experiment [4], in experiment [5] and in experiment [1] were 3.7 nM, 2.6 nM and 15 nM, respectively.

Regarding `COc1ccc(OC)c([C@@H]2C[C@H]2NC(C)=O)c1` (racemic), the Ki in experiment [4] came out at 87 nM; in experiment [5], 86 nM; in experiment [1], 130 nM.

In the case of `COc1ccccc1[C@@H]1C[C@H]1NC(C)=O` (racemic), the inhibitory constant (Ki) in experiment [1] was greater than 1000 nM.

As to `COc1ccc2ccc(OC)c([C@@H]3C[C@H]3NC(C)=O)c2c1` (racemic), the “fold change (FC)” value in the experiment listed under Xenopus laevis [2] is 264. Further, in the experiment filed under Xenopus laevis [3], the concentration for a half-maximal effect (EC50) was determined as 0.01 nM. Further, the inhibition constant (Ki) in experiment [4] was 0.06 nM; in experiment [5] it was 0.2 nM; in experiment [1], 0.46 nM.

For the molecule `COc1ccc2ccccc2c1/C=C/NC(C)=O`, the “fold change (FC)” value in the experiment listed under Xenopus laevis [2] is on record as 0.028. The EC50 in the experiment listed under Xenopus laevis [3] amounted to 93.5 nM. The inhibitory constant (Ki) in experiment [4] was 0.1 nM; in experiment [5], 0.09 nM; in experiment [1], 4.6 nM.

Turning to `CC(=O)N[C@@H]1C[C@H]1c1cccc2ccccc12` (racemic), the 50% effective concentration (EC50) in the experiment listed under Xenopus laevis [3] was greater than 10000 nM. In addition, the Ki was found to be 19 nM in experiment [4], 6.8 nM in experiment [5] and 128 nM in experiment [1].

For `CNC(=O)N/C=C/c1ccccc1OC`, the Ki in experiment [4] and in experiment [5] was greater than 1000 nM each time.

With `COc1ccc(OC)c([C@@H]2C[C@@H]2NC(C)=O)c1` (racemic), the inhibitory constant (Ki) in experiment [1] was greater than 1000 nM.

For `COc1ccc(OC)c(/C=C/NC(C)=O)c1`, affinity in experiment [1] was put at a Ki of 283 nM.

For the molecule `CNC(=O)N/C=C/c1c(OC)ccc2ccc(OC)cc12`, the Ki in experiment [4] is 0.2 nM; in experiment [5], 0.3 nM; in experiment [1], 0.08 nM.

With `COc1ccc2cccc([C@@H]3C[C@H]3NC(C)=O)c2c1` (racemic), the “fold change (FC)” value in the experiment filed under Xenopus laevis [2] turned out to be 0.017. The EC50 in the experiment listed under Xenopus laevis [3] was 155 nM. Moreover, the inhibition constant Ki in experiment [4] amounted to 0.3 nM; in experiment [5] it was 0.7 nM; in experiment [1], 1.6 nM.

`CNC(=O)N/C=C/c1c(OC)ccc2ccccc12`: the Ki was 3.1 nM in experiment [4], 6.5 nM in experiment [5] and 36.6 nM in experiment [1].

For the molecule `COc1cccc([C@@H]2C[C@H]2NC(C)=O)c1` (racemic), the affinity in experiment [1], expressed as Ki, was 93 nM.

On to `CNC(=O)N/C=C/c1cccc2ccccc12`, for which the values for the Ki in experiment [4], in experiment [5] and in experiment [1] were 25 nM, 15 nM and 139 nM, respectively.

In turn, `COc1ccccc1/C=C/NC(C)=O` had a Ki in experiment [1] greater than 1000 nM.

In the case of `COc1ccc2ccc(OC)c(/C=C/NC(C)=O)c2c1`, the “Ratio EC50” value in the experiment listed under Xenopus laevis [6] is recorded as 1000. The “fold change (FC)” value in the experiment listed under Xenopus laevis [2] was 3473. Besides, in the experiment filed under Xenopus laevis [3], the EC50 came to 0.00076 nM. The Ki in experiment [4] was 0.03 nM; in experiment [5], 0.07 nM; in experiment [1], 0.012 nM.

`COc1ccc2[nH]cc(CCNC(C)=O)c2c1` [MELATONIN]: the Ki in experiment [1] is 0.54 nM.

Turning to `COc1ccc2cccc(/C=C/NC(C)=O)c2c1`, the “fold change (FC)” value in the experiment filed under Xenopus laevis [2] is listed as 6.1. In addition, the EC50 in the experiment filed under Xenopus laevis [3] came out at 0.035 nM. The Ki in experiment [4] amounted to 0.04 nM; in experiment [5], 0.03 nM; in experiment [1], 0.16 nM.

`CNC(=O)N/C=C/c1cc(OC)ccc1OC` returned an inhibition constant Ki in experiment [1] greater than 1000 nM.

`CC(=O)N/C=C/c1cccc2ccccc12`: the “fold change (FC)” value in the experiment filed under Xenopus laevis [2] is reported as 0.0031. For the same molecule, the EC50 in the experiment filed under Xenopus laevis [3] amounted to 854 nM. The Ki was determined as 6.7 nM in experiment [4] and 1.4 nM in experiment [5].

On to `COc1ccc2cccc(CCNC(C)=O)c2c1` [AGOMELATINE], for which the EC50 in the experiment listed under Xenopus laevis [3] is 0.35 nM. Further, in experiment [1], the Ki is 0.67 nM.
